What all share (settings): Compound concentration 10 µM
For assay [1], the target named is 5-hydroxytryptamine receptor 7 (Homo sapiens) (UniProt P34969).
Description: PDSP Primary Binding target: HTR7 - Compounds are tested at 10 uM concentration, plate are incubated at room temperature in the dark for 90 minutes. Reaction are stopped by vacuum filtration onto 0.3% polyethyleneimine soaked filter mats using Filtermate harvester. Scintilation cocktail is then melted onto microwave-dried filters on a hot plate and the radio activity is counted in Microbia counter.
Assay [2] addresses D(1B) dopamine receptor (Homo sapiens) (UniProt P21918).
Description: PDSP Primary Binding target: DRD5 - Compounds are tested at 10 uM concentration, plate are incubated at room temperature in the dark for 90 minutes. Reaction are stopped by vacuum filtration onto 0.3% polyethyleneimine soaked filter mats using Filtermate harvester. Scintilation cocktail is then melted onto microwave-dried filters on a hot plate and the radio activity is counted in Microbia counter.
Assay [3] has as its target Beta-1 adrenergic receptor (Homo sapiens) (UniProt P08588).
Description: PDSP Primary Binding target: ADRB1 - Compounds are tested at 10 uM concentration, plate are incubated at room temperature in the dark for 90 minutes. Reaction are stopped by vacuum filtration onto 0.3% polyethyleneimine soaked filter mats using Filtermate harvester. Scintilation cocktail is then melted onto microwave-dried filters on a hot plate and the radio activity is counted in Microbia counter.
Assay [4] deals with Beta-3 adrenergic receptor (Homo sapiens) (UniProt P13945).
Description: PDSP Primary Binding target: ADRB3 - Compounds are tested at 10 uM concentration, plate are incubated at room temperature in the dark for 90 minutes. Reaction are stopped by vacuum filtration onto 0.3% polyethyleneimine soaked filter mats using Filtermate harvester. Scintilation cocktail is then melted onto microwave-dried filters on a hot plate and the radio activity is counted in Microbia counter.
For assay [5], the target named is D(2) dopamine receptor (Homo sapiens) (UniProt P14416).
Description: PDSP Primary Binding target: DRD2 - Compounds are tested at 10 uM concentration, plate are incubated at room temperature in the dark for 90 minutes. Reaction are stopped by vacuum filtration onto 0.3% polyethyleneimine soaked filter mats using Filtermate harvester. Scintilation cocktail is then melted onto microwave-dried filters on a hot plate and the radio activity is counted in Microbia counter.
Assay [6] has as its target T1, Muscarinic acetylcholine receptor M1 (Homo sapiens) (UniProt P11229).
T1 sequence (whole entry): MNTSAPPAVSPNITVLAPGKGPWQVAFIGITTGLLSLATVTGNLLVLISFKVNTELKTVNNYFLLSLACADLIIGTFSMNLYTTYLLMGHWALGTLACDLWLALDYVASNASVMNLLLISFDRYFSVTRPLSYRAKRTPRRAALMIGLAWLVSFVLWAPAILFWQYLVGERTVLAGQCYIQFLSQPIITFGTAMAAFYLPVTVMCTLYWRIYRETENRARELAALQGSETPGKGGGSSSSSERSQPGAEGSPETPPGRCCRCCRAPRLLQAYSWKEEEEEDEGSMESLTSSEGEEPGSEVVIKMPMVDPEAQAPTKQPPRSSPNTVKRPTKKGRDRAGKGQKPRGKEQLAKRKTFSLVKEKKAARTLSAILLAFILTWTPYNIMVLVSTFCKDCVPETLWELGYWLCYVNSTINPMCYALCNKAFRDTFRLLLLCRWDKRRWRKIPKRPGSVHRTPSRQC
Description: PDSP Primary Binding target: CHRM1 - Compounds are tested at 10 uM concentration, plate are incubated at room temperature in the dark for 90 minutes. Reaction are stopped by vacuum filtration onto 0.3% polyethyleneimine soaked filter mats using Filtermate harvester. Scintilation cocktail is then melted onto microwave-dried filters on a hot plate and the radio activity is counted in Microbia counter.

Assay [7] addresses Histamine H3 receptor (Homo sapiens) (UniProt Q9Y5N1).
Description: PDSP Primary Binding target: HRH3 - Compounds are tested at 10 uM concentration, plate are incubated at room temperature in the dark for 90 minutes. Reaction are stopped by vacuum filtration onto 0.3% polyethyleneimine soaked filter mats using Filtermate harvester. Scintilation cocktail is then melted onto microwave-dried filters on a hot plate and the radio activity is counted in Microbia counter.
Assay [8] deals with T2, Alpha-1A adrenergic receptor (Homo sapiens) (UniProt P35348).
T2 sequence (whole entry): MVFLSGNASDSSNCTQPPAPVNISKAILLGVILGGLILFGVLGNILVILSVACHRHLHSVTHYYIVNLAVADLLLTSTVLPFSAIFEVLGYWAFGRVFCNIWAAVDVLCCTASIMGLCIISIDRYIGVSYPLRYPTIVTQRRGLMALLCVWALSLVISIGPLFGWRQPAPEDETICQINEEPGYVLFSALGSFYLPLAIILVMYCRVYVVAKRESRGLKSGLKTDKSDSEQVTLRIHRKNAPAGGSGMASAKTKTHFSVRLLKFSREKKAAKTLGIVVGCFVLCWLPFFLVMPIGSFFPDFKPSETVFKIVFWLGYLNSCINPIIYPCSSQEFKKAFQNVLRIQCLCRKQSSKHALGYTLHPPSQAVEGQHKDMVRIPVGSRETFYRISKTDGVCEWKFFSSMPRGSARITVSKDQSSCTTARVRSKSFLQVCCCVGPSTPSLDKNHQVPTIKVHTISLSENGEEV
Description: PDSP Primary Binding target: ADRA1A - Compounds are tested at 10 uM concentration, plate are incubated at room temperature in the dark for 90 minutes. Reaction are stopped by vacuum filtration onto 0.3% polyethyleneimine soaked filter mats using Filtermate harvester. Scintilation cocktail is then melted onto microwave-dried filters on a hot plate and the radio activity is counted in Microbia counter.

Assay [9] concerns the target 5-hydroxytryptamine receptor 1D (Homo sapiens) (UniProt P28221).
Description: PDSP Primary Binding target: HTR1D - Compounds are tested at 10 uM concentration, plate are incubated at room temperature in the dark for 90 minutes. Reaction are stopped by vacuum filtration onto 0.3% polyethyleneimine soaked filter mats using Filtermate harvester. Scintilation cocktail is then melted onto microwave-dried filters on a hot plate and the radio activity is counted in Microbia counter.
Assay [10] concerns the target T3, Muscarinic acetylcholine receptor M5 (Homo sapiens) (UniProt P08912).
T3 sequence (whole entry): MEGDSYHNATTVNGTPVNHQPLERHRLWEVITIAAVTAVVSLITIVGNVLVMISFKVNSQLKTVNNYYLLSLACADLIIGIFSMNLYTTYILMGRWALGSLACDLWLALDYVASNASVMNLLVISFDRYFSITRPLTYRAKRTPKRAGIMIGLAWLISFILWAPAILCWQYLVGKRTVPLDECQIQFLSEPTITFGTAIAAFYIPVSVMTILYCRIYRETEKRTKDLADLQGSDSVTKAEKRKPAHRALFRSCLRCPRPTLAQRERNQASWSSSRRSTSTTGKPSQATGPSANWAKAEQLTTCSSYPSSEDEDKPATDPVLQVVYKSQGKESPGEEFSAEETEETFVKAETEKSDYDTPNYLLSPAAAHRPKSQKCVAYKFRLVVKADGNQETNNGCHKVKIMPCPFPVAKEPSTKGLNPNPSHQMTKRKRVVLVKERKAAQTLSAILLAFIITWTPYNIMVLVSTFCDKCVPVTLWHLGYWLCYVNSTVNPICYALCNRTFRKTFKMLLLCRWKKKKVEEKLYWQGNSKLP
Description: PDSP Primary Binding target: CHRM5 - Compounds are tested at 10 uM concentration, plate are incubated at room temperature in the dark for 90 minutes. Reaction are stopped by vacuum filtration onto 0.3% polyethyleneimine soaked filter mats using Filtermate harvester. Scintilation cocktail is then melted onto microwave-dried filters on a hot plate and the radio activity is counted in Microbia counter.

Assay [11] concerns the target Muscarinic acetylcholine receptor M3 (Homo sapiens) (UniProt P20309).
Description: PDSP Primary Binding target: CHRM3 - Compounds are tested at 10 uM concentration, plate are incubated at room temperature in the dark for 90 minutes. Reaction are stopped by vacuum filtration onto 0.3% polyethyleneimine soaked filter mats using Filtermate harvester. Scintilation cocktail is then melted onto microwave-dried filters on a hot plate and the radio activity is counted in Microbia counter.
In assay [12] the target is Sigma non-opioid intracellular receptor 1 (Homo sapiens) (UniProt Q99720).
Sigma non-opioid intracellular receptor 1 (Homo sapiens), sequence (Q99720 whole entry): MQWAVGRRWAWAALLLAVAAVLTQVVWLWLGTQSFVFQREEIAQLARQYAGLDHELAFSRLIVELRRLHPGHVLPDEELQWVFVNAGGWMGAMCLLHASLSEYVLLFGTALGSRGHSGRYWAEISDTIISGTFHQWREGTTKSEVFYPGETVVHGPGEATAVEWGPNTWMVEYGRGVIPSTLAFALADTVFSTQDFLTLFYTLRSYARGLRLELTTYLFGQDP
Description: PDSP Primary Binding target: SIGMAR1 - Compounds are tested at 10 uM concentration, plate are incubated at room temperature in the dark for 90 minutes. Reaction are stopped by vacuum filtration onto 0.3% polyethyleneimine soaked filter mats using Filtermate harvester. Scintilation cocktail is then melted onto microwave-dried filters on a hot plate and the radio activity is counted in Microbia counter.
For assay [13], the target named is Sodium-dependent noradrenaline transporter (Homo sapiens) (UniProt P23975).
Sodium-dependent noradrenaline transporter (Homo sapiens), sequence (P23975 whole entry): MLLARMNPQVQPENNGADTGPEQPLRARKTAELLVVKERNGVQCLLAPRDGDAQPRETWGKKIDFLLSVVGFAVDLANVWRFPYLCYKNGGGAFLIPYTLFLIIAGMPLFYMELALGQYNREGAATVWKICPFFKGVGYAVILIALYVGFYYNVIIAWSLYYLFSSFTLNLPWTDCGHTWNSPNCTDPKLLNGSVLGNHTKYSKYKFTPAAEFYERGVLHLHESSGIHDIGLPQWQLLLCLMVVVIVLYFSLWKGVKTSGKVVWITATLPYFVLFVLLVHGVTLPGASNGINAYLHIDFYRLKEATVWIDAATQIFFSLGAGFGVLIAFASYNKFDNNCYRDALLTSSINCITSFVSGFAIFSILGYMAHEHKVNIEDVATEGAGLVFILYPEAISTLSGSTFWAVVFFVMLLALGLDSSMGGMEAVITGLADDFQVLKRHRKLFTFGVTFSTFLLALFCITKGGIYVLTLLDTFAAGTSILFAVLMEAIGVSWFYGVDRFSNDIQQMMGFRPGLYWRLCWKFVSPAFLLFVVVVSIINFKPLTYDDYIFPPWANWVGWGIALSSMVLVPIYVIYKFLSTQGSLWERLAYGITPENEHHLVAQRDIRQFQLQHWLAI
Description: PDSP Primary Binding target: SLC6A2 - Compounds are tested at 10 uM concentration, plate are incubated at room temperature in the dark for 90 minutes. Reaction are stopped by vacuum filtration onto 0.3% polyethyleneimine soaked filter mats using Filtermate harvester. Scintilation cocktail is then melted onto microwave-dried filters on a hot plate and the radio activity is counted in Microbia counter.
For assay [14], the target named is 5-hydroxytryptamine receptor 1B (Homo sapiens) (UniProt P28222).
5-hydroxytryptamine receptor 1B (Homo sapiens), sequence (P28222 whole entry): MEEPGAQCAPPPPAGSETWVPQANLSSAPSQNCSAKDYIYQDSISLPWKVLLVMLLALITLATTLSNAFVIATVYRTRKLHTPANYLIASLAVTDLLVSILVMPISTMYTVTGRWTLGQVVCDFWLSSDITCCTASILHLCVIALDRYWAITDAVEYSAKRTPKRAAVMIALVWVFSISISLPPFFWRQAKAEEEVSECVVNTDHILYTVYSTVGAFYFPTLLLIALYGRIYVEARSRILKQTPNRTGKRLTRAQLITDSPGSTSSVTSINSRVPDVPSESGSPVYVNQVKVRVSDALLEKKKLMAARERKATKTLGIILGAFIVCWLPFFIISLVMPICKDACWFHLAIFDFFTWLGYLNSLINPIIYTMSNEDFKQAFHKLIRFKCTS
Description: PDSP Primary Binding target: HTR1B - Compounds are tested at 10 uM concentration, plate are incubated at room temperature in the dark for 90 minutes. Reaction are stopped by vacuum filtration onto 0.3% polyethyleneimine soaked filter mats using Filtermate harvester. Scintilation cocktail is then melted onto microwave-dried filters on a hot plate and the radio activity is counted in Microbia counter.
Assay [15] has as its target Histamine H2 receptor (Homo sapiens) (UniProt P25021).
Description: PDSP Primary Binding target: HRH2 - Compounds are tested at 10 uM concentration, plate are incubated at room temperature in the dark for 90 minutes. Reaction are stopped by vacuum filtration onto 0.3% polyethyleneimine soaked filter mats using Filtermate harvester. Scintilation cocktail is then melted onto microwave-dried filters on a hot plate and the radio activity is counted in Microbia counter.
Assay [16] concerns the target T4, Muscarinic acetylcholine receptor M4 (Homo sapiens) (UniProt P08173).
T4 sequence (whole entry): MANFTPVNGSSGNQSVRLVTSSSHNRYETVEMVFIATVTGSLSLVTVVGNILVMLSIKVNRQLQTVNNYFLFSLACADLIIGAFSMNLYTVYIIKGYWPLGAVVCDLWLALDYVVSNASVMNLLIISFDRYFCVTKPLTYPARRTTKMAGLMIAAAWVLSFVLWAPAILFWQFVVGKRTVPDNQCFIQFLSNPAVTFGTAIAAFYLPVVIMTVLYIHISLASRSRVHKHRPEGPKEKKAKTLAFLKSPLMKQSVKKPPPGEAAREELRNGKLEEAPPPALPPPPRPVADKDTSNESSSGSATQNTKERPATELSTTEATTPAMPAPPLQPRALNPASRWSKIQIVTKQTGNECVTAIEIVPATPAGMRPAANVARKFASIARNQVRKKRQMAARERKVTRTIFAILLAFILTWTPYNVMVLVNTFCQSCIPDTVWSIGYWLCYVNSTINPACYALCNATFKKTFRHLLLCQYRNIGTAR
Description: PDSP Primary Binding target: CHRM4 - Compounds are tested at 10 uM concentration, plate are incubated at room temperature in the dark for 90 minutes. Reaction are stopped by vacuum filtration onto 0.3% polyethyleneimine soaked filter mats using Filtermate harvester. Scintilation cocktail is then melted onto microwave-dried filters on a hot plate and the radio activity is counted in Microbia counter.

Assay [17] addresses D(1A) dopamine receptor (Homo sapiens) (UniProt P21728).
Description: PDSP Primary Binding target: DRD1 - Compounds are tested at 10 uM concentration, plate are incubated at room temperature in the dark for 90 minutes. Reaction are stopped by vacuum filtration onto 0.3% polyethyleneimine soaked filter mats using Filtermate harvester. Scintilation cocktail is then melted onto microwave-dried filters on a hot plate and the radio activity is counted in Microbia counter.
Assay [18] concerns the target Sodium-dependent dopamine transporter (Homo sapiens) (UniProt Q01959).
Description: PDSP Primary Binding target: SLC6A3 - Compounds are tested at 10 uM concentration, plate are incubated at room temperature in the dark for 90 minutes. Reaction are stopped by vacuum filtration onto 0.3% polyethyleneimine soaked filter mats using Filtermate harvester. Scintilation cocktail is then melted onto microwave-dried filters on a hot plate and the radio activity is counted in Microbia counter.

Inhibition data for three molecules are collected here from ChEMBL document CHEMBL5442219.

Muscarinic acetylcholine receptor M3 (Homo sapiens), sequence (P20309 whole entry, looked up): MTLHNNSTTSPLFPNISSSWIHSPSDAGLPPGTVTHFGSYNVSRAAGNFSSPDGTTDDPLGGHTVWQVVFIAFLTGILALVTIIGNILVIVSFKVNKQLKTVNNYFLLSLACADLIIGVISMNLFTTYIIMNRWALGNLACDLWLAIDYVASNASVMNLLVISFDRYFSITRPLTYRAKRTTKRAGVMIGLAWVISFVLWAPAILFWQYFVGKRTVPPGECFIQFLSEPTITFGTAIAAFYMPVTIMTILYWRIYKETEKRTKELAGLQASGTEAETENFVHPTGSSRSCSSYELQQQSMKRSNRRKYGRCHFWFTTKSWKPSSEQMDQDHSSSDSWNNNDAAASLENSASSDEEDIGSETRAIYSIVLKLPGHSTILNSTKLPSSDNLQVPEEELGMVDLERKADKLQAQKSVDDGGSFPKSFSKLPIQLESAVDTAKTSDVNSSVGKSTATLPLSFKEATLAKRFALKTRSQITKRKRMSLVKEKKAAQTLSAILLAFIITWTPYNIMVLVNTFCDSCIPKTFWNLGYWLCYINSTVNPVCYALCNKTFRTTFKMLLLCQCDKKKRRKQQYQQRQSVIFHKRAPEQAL
Histamine H2 receptor (Homo sapiens), sequence (P25021 whole entry): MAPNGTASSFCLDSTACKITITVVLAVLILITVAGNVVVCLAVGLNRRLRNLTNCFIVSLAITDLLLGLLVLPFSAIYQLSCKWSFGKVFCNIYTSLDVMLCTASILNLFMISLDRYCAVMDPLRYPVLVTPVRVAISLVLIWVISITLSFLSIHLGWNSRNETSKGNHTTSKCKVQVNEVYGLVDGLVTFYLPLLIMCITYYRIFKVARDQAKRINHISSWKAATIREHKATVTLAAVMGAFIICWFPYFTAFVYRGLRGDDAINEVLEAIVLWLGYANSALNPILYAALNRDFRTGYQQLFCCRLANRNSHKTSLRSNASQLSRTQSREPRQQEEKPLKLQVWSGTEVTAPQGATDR
5-hydroxytryptamine receptor 1D (Homo sapiens), sequence (P28221 whole entry): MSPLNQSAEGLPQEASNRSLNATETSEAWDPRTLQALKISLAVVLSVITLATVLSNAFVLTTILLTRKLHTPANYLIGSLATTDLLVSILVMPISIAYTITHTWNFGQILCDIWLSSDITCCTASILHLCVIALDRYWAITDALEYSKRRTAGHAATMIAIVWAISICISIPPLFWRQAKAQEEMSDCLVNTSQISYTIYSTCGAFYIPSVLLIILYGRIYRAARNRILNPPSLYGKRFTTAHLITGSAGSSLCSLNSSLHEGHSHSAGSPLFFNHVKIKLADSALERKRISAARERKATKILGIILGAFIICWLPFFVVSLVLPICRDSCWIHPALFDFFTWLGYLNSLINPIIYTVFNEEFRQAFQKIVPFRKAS
Beta-1 adrenergic receptor (Homo sapiens), sequence (P08588 whole entry, looked up): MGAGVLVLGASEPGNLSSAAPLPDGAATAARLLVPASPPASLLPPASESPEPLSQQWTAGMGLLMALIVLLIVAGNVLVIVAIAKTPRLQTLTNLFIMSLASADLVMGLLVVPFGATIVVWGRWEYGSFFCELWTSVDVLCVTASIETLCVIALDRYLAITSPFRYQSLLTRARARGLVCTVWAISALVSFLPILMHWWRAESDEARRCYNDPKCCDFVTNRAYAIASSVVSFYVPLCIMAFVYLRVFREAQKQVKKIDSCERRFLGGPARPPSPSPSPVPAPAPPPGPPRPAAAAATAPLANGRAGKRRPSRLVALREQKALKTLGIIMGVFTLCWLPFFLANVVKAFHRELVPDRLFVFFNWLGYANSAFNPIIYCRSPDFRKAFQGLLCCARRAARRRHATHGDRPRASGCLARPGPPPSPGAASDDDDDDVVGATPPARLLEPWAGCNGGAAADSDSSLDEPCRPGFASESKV
Beta-3 adrenergic receptor (Homo sapiens), sequence (P13945 whole entry, looked up): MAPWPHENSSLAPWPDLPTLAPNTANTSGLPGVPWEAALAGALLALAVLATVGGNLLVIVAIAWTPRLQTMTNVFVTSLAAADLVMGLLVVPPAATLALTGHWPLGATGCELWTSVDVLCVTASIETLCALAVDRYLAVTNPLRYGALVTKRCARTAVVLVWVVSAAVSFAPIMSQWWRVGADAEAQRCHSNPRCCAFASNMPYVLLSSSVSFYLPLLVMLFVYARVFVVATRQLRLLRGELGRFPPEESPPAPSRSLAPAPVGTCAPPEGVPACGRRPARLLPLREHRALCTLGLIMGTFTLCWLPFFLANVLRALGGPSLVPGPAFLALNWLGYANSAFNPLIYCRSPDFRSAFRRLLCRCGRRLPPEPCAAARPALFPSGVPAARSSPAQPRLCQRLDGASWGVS
Histamine H3 receptor (Homo sapiens), sequence (Q9Y5N1 whole entry): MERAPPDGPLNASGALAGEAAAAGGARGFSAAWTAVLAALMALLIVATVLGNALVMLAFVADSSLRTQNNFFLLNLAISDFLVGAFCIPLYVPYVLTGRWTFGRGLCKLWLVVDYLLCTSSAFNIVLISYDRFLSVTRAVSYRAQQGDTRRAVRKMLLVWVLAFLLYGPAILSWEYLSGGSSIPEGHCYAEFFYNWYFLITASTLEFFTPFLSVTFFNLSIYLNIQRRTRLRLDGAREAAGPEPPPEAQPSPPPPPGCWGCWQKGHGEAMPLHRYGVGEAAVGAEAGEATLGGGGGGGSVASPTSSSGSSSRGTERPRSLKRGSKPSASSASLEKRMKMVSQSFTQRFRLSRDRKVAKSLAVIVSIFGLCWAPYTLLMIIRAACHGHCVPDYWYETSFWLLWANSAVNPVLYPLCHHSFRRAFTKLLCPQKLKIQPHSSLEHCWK
5-hydroxytryptamine receptor 7 (Homo sapiens), sequence (P34969 whole entry): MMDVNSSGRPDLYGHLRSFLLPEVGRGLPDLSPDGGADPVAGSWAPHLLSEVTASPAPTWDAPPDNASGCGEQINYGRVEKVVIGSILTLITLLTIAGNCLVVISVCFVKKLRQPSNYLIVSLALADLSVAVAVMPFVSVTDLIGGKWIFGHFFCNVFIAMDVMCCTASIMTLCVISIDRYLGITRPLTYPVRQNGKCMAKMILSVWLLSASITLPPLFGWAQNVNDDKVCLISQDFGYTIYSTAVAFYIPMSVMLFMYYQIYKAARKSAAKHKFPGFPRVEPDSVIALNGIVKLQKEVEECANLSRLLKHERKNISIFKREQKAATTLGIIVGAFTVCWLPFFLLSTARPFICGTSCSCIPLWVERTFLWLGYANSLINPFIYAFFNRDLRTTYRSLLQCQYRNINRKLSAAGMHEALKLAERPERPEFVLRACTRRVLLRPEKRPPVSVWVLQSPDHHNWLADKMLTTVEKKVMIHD
D(2) dopamine receptor (Homo sapiens), sequence (P14416 whole entry): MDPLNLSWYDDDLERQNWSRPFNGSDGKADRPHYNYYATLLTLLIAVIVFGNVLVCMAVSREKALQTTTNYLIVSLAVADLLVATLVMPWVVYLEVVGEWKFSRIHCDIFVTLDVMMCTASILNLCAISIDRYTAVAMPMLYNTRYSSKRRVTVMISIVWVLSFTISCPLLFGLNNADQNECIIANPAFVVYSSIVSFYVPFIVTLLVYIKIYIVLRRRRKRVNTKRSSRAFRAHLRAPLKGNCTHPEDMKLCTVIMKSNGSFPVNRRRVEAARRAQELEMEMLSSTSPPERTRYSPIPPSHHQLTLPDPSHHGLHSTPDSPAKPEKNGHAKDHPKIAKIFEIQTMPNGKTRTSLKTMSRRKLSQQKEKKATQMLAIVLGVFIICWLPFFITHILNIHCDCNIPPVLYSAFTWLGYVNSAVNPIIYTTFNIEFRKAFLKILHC

As a reminder, the inhibition is the drop in the measured response relative to a control, in per cent. Regarding `Cc1cc(C)cc(-c2cnc3cc(Cl)c(-c4cccc(O)c4)cc3c2OCCCN)c1`, the inhibition in assay [1] is 54.9%; in assay [2] it was 72.9%; in assay [3], 19.6%; in [4], 99.4%; in assay [5], 37.3%; in assay [6] it was 24.3%. Also, the inhibition was 10.6% in assay [7]; 28.4% in assay [8]; 91.8% in assay [9]; 3.7% in [10]; 59.2% in [11]; 74.9% in [12]. The inhibition was 59.5% in assay [13], 88.2% in [14], 81.6% in assay [15] and 8.82% in assay [16].

With `Cc1c(P(=S)(c2ccccc2)c2ccccc2)n2ccccc2[n+]1C/C=C/c1ccccc1`, the inhibition in [1] is 34.3%; in [2], 24.6%; in [3], 36.1%; in [4], 68.2%; in assay [5] it was 49%; in assay [6], 88.2%. The inhibition was 16.3% in [17]; 15% in assay [7]; 28.7% in [8]; 40.5% in assay [9]; 89% in assay [10]; 71% in [11]. The inhibition is 83.2% in assay [18]; 67.2% in assay [12]; 83.2% in [13]; 45.4% in [14]; 76.4% in [15]; 68.4% in [16].

With `Cc1nc(C#Cc2ccnc(Cl)c2)c(C)n1-c1ccc(OC(F)(F)F)cc1`, the inhibition in assay [1] is 7.42%; in assay [2], 6%; in assay [3], 29.4%; in assay [4] it was 63%; in assay [5], 28.3%; in assay [6], 26.6%. Besides, the inhibition in assay [7] was 0.66%; in [8] it was 14.3%; in [9], 48.9%; in [10], -6.77%; in assay [11] it was -6.52%; in [18], 8%. In addition, the inhibition in [12] is 56.3%; in [13] it was 1.45%; in [14], 11.3%; in [15], 10.4%; in assay [16], 15.4%.
